Assay results: ChEMBL document CHEMBL1268938, “Identification of a red-emitting fluorescent ligand for in vitro visualization of human serotonin 5-HT(1A) receptors” (Bioorg Med Chem Lett, 2010)

The compounds below were run against T1, 5-hydroxytryptamine receptor 1A (Homo sapiens, UniProt P08908) (assay: Displacement of [3H]8-OH-DPAT from human cloned 5HT1A receptor expressed in HEK293 cells).
T1 sequence (P08908 whole entry): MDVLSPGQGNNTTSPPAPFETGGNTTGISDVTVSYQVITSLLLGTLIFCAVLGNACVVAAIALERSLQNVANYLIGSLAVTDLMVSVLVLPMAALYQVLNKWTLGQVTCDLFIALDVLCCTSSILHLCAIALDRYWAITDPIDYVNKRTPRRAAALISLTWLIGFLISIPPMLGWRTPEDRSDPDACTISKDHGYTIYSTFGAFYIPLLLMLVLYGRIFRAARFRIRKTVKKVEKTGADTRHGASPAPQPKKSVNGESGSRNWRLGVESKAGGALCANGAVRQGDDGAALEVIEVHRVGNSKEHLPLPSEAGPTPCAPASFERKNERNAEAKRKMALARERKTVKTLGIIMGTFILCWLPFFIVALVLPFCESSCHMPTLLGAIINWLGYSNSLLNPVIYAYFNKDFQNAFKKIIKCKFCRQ
Type: cell-based
`COc1ccccc1N1CCN(CCCCCNC(=O)c2ccc(SC3=C(/C=C/C4=[N+](CCCCS(=O)(=O)[O-])c5ccccc5C4(C)C)CCC/C3=C\C=C3\N(CCCCS(=O)(=O)O)c4ccccc4C3(C)C)cc2)CC1` gave a Ki of 65.8 nM. In the case of `COc1cccc(CCN2CCN(c3ccccc3OC)CC2)c1`, the Ki is reported as 2.4 nM. For `CCCCCN1CCN(c2ccccc2OC)CC1`, the Ki was 5.16 nM. `COc1ccccc1N1CCN(CCc2cccc(OCCCCCOc3cccc(CCN4CCN(c5ccccc5OC)CC4)c3)c2)CC1` gave a Ki of 1.7 nM. Compound `CCN(CC)c1ccc2cc(/C=C/C3=[N+](CCCCCC(=O)Oc4cccc(CCN5CCN(c6ccccc6OC)CC5)c4)c4ccccc4C3(C)C)c(=O)oc2c1` has a Ki of 35 nM.
